The text below walks through data of PMC7022378, “Structural Analyses on the Deamidation of N-Terminal Asn in the Human N-Degron Pathway” (Biomolecules, 2020).

Where a chain is given by its changes, count along the chain named.

Holding throughout (type): biochemical
One assay has as its target T1, NTAN1 T74A (Homo sapiens, UniProt Q96AB6, T74A).
T1 construct: The gene for full-length NTAN1 was cloned into pET-21a(+); made in house; host or cells: E. coli Rosetta 2(DE3)
T1 sequence (Q96AB6 1-310 T74A): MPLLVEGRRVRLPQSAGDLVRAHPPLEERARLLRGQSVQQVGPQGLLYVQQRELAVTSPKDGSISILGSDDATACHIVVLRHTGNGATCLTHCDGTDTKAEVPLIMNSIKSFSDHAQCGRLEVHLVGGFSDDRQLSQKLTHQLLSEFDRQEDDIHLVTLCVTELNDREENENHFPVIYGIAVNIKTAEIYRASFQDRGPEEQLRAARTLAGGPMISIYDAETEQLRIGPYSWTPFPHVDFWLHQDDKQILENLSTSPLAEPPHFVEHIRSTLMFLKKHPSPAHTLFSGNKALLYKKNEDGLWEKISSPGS
Nature of the assay: In vitro deamidation assay, NTAN1 T74A mutant. The conditions noted are these: substrate NRAAA, 100 μM, 37 °C, pH 7.0, LC-MS (Figure 3f); three independent experiments. An excerpt:
(§1) NTAN1 mutants were constructed using QuikChange Ⅱ Site-Directed Mutagenesis Kit (Agilent Technologies, Santa Clara, CA, USA). NTAN1 mutants, Q51A, S69A, T73A, T74A, C75A, H92A, S254A, T255A, and E260A were generated. The mutants were expressed and purified as for NTAN1.
(§2) Peptides with Nt-Asn which mimic potential substrates of NTAN1 were synthesized: NRA, NRAA, NRAAA, NRQVA, NRQVAA, NRQVAAA, NFAAR, NLAAR, NRAAR, NAAAR, NNAAR, NPAAR, NGAAR, and NDAAR. Non-Nt-Asn peptides, QRAAA and VRAAA, were also synthesized. NTAN1 (at concentrations of 0.5 μM, 0.16 μM, or 0.04 μM) and the peptides (at a concentration of 100 μM) were mixed and incubated at 37 °C in a buffer containing 200 mM NaCl and 10 mM HEPES-NaOH (pH 7.0). […] The deamidation coefficient of peptides catalyzed by NTAN1 was assessed by the slope of exponential curve drawn from the concentration of the substrate over incubation time.
(§3) The peptides were quantified by an LC-MS system (1260 Infinity/6430 Triple Quad, Agilent Technologies) equipped with a binary pump (G1312B), a thermostated column compartment (G1316C), a thermostat (G1330B), and an autosampler (G1367E). […] The data acquisition and processing were performed by using MassHunter Workstation Software Quantitative Analysis (Version B.05.00; Agilent Technologies, Santa Clara, CA, USA). […]

For the next assay, the target named is T2, NTAN1 E260A (Homo sapiens, UniProt Q96AB6, E260A).
T2 construct: The gene for full-length NTAN1 was cloned into pET-21a(+); made in house; host or cells: E. coli Rosetta 2(DE3)
T2 sequence (Q96AB6 1-310 E260A): T1 sequence (Q96AB6 1-310 T74A) with A74T, E260A
The assay is described as follows: In vitro deamidation assay, NTAN1 E260A mutant. Particulars: substrate NRAAA, 100 μM, 37 °C, pH 7.0, LC-MS (Figure 3d); three independent experiments.
From the text: as §1, §2, §3

The target of a further assay is T3, NTAN1 T255A (Homo sapiens, UniProt Q96AB6, T255A).
T3 construct: The gene for full-length NTAN1 was cloned into pET-21a(+); made in house; host or cells: E. coli Rosetta 2(DE3)
T3 sequence (Q96AB6 1-310 T255A): T1 sequence (Q96AB6 1-310 T74A) with A74T, T255A
The assay is described as follows: In vitro deamidation assay, NTAN1 T255A mutant. The conditions noted are these: substrate NRAAA, 100 μM, 37 °C, pH 7.0, LC-MS (Figure 3c); three independent experiments.
From the text: as §1, §2, §3

Another assay concerns the target T4, NTAN1 T73A (Homo sapiens, UniProt Q96AB6, T73A).
T4 construct: The gene for full-length NTAN1 was cloned into pET-21a(+); made in house; host or cells: E. coli Rosetta 2(DE3)
T4 sequence (Q96AB6 1-310 T73A): T1 sequence (Q96AB6 1-310 T74A) with T73A, A74T
The assay is described as follows: In vitro deamidation assay, NTAN1 T73A mutant. The conditions noted are these: substrate NRAAA, 100 μM, 37 °C, pH 7.0, LC-MS (Figure 3g); three independent experiments.
From the text: as §1, §2, §3

Consider “NRAAA [synthesized peptide with Nt-Asn, 5 mer model substrate of NTAN1]”, for which, on NTAN1 T74A, the “Enzymatic activity of NTAN1 T74A” value was “abolished”. Also, at NTAN1 E260A, the “Deamidation activity of NTAN1 E260A” value was “lost its deamidation activity”. Besides, on NTAN1 T255A, the “Enzymatic activity of NTAN1 T255A” value is “abolished”. Also, the “Enzymatic activity of NTAN1 T73A” value at NTAN1 T73A is “abolished”.
